Data on one molecule can be found in paper PMC11137104, “Small molecule induced STING degradation facilitated by the HECT ligase HERC4” (Nature Communications, 2024).

What all share (test): NanoBiT complementation of STING and HERC4 in HEK293T; also co-immunoprecipitation
Holding throughout (format): cell-based

For assay [1], the target named is T1, STING^141-341-LgBiT : SmBiT-HERC4 (Homo sapiens, UniProt Q5GLZ8+Q86WV6).
T1 construct: gene STING1; STING cytosolic domain with connector helix (141-341), C-terminal LgBiT; full-length HERC4, N-terminal SmBiT; transient in HEK293T
The settings on record: compound-induced STING-HERC4 association; dose-response, 16 h; binding site and direct binary binding not determined.

Assay [2] has as its target T2, STING^141-341-LgBiT : SmBiT-HERC4 (Homo sapiens, UniProt Q5GLZ8+Q86WV6, Q86WV6:K150R).
T2 construct: gene STING1; STING cytosolic domain with connector helix (141-341), C-terminal LgBiT; full-length HERC4, N-terminal SmBiT; transient in HEK293T
The note with it: compound-induced STING-HERC4 association; dose-response, 16 h; binding site and direct binary binding not determined.

Assay [3] addresses T3, STING^155-341-LgBiT : SmBiT-HERC4 (Homo sapiens, UniProt Q5GLZ8+Q86WV6).
T3 construct: gene STING1; full-length HERC4, N-terminal SmBiT; transient in HEK293T
The settings on record: compound-induced STING-HERC4 association; 16 h; binding site and direct binary binding not determined.

T2 sequence (Q86WV6 141-341 K150R): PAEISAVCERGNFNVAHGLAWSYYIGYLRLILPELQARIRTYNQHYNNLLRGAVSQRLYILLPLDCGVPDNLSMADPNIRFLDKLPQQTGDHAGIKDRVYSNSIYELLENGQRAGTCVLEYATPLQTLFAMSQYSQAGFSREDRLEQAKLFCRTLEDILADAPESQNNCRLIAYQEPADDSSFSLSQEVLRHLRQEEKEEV
T2 sequence (Q5GLZ8 whole entry, the tested form may be a part): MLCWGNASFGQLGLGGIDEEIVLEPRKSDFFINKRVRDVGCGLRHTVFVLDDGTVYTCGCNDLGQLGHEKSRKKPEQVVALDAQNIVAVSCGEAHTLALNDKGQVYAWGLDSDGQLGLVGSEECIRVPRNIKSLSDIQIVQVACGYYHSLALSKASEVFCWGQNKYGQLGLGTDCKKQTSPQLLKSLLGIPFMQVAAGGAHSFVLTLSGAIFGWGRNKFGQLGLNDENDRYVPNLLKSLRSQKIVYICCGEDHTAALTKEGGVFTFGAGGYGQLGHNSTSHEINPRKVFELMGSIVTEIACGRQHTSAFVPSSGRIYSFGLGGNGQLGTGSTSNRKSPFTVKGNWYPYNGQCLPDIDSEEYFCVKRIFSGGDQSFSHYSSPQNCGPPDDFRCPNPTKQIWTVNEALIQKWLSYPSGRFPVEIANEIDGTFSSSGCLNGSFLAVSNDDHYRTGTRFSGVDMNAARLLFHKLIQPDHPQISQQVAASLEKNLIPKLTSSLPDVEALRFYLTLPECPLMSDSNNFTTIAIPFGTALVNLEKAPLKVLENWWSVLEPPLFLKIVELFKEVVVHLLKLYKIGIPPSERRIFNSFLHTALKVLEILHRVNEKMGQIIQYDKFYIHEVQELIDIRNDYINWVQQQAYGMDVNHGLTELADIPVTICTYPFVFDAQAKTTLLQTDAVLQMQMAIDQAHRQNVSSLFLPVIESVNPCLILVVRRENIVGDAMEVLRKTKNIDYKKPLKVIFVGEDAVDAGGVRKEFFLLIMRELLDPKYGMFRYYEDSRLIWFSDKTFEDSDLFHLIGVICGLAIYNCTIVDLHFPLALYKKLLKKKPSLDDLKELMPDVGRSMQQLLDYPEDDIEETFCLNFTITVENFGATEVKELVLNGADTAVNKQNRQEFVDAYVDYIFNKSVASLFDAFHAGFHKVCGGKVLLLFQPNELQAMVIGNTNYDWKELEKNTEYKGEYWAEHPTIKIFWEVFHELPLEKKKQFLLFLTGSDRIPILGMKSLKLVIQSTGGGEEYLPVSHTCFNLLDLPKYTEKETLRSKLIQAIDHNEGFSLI
T1 sequence (Q86WV6 141-341): as the sequence (Q86WV6 141-341 K150R) above, with R10K counted along it
T1 sequence (Q5GLZ8 whole entry, the tested form may be a part): as the sequence (Q5GLZ8 whole entry, the tested form may be a part) above
T3 sequence (Q86WV6 155-341): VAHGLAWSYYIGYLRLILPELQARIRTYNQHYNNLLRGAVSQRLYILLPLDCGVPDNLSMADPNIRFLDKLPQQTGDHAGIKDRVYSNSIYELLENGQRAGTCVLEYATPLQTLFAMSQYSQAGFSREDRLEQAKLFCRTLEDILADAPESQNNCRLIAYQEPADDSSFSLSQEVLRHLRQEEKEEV
T3 sequence (Q5GLZ8 whole entry): as the sequence (Q5GLZ8 whole entry, the tested form may be a part) above

In the case of `O=S(=O)(Nc1ccc(-c2cccnc2)c2cccnc12)c1ccc(C(F)(F)F)cc1` [AK59, AK59-51TB], the “NanoBiT complementation of STING and HERC4 in HEK293T; also co-immunoprecipitati” value in assay [1] was “only AK59, but not the inactive analog QK50, is capable of inducing an interaction”; in assay [2] it was “all constructs showed a luminescence signal indicating a direct interaction with HERC4 upon AK59”; in assay [3], “all constructs showed a luminescence signal indicating a direct interaction with HERC4 upon AK59”.
